Data on 18 compounds can be found in ChEMBL document CHEMBL1770128, “Synthesis and antifungal activities of novel 5,6-dihydro-indolo[1,2-a]quinoxaline derivatives” (2011).

Format in all cases: functional
The subject of one assay is Alternaria alternata. Nature of the assay: Antimicrobial activity against Alternaria alternata at 50 ug/ml […] by poisoned food technique. Conditions: 120 h.
A further assay has as its system Alternaria brassicae. Nature of the assay: Antimicrobial activity against Alternaria brassicae at 50 ug/ml […] by poisoned food technique.
In assay [1] the test system is Fusarium oxysporum f. sp. vasinfectum. Briefly: Antimicrobial activity against Fusarium oxysporum f. sp. vasinfectum at 50 ug/ml […] by poisoned food technique. Conditions: 120 h.
For the next assay, the system named is Fusarium graminearum. Briefly: Antimicrobial activity against Fusarium graminearum at 50 ug/ml after 5 days by poisoned food technique. Conditions: 120 h.
In the next assay the test system is Pyricularia oryzae. Nature of the assay: Antimicrobial activity against Pyricularia oryzae at 50 ug/ml after 5 days by poisoned food technique. Conditions: 120 h.

The inhibition is the change of the read-out against control, counted positive when it falls. As to `O=[N+]([O-])c1ccc(C2Nc3ccccc3-n3c2cc2ccccc23)cc1` (stereo not given), the inhibition at 50 µg/mL in the assay on Alternaria alternata is 19.4%; in the assay on Alternaria brassicae, 11.2%; in assay [1], 9.2%; with Fusarium graminearum, 17.2%; with Pyricularia oryzae, 5.8%.
On to `Oc1ccc(C2Nc3ccccc3-n3c2cc2ccccc23)cc1` (stereo not given), for which the inhibition at 50 µg/mL was found to be 58.3% with Alternaria alternata; 31.4% in the assay with Alternaria brassicae; 39.2% in assay [1]; 52.1% with Fusarium graminearum; 50.8% in the assay with Pyricularia oryzae.
As to `COc1cc(C2Nc3ccccc3-n3c2cc2ccccc23)ccc1O` (stereo not given), the inhibition at 50 µg/mL in the assay on Alternaria alternata came to 9.2%; in the assay on Alternaria brassicae it was 15.7%; in assay [1], 11%; in the assay on Fusarium graminearum, 15.7%; with Pyricularia oryzae, 4.4%.
Take `Cc1c2n(c3ccccc13)-c1ccccc1NC2c1ccc([N+](=O)[O-])cc1` (stereo not given): the inhibition at 50 µg/mL in the assay with Alternaria alternata is 18.2%; in the assay on Alternaria brassicae, 13.3%; in assay [1], 11.4%; with Fusarium graminearum it was 26.6%; in the assay on Pyricularia oryzae, 11.8%.
The like results for `Cc1c2n(c3ccccc13)-c1ccccc1NC2c1ccc(O)cc1` (stereo not given) were, in that order, 55.6%, 53%, 44%, 48% and 46.5%.
The like results for `Cc1cccc2c1cc1n2-c2ccccc2NC1c1ccc([N+](=O)[O-])cc1` (stereo not given) were, in that order, 17.7%, 10.4%, 5.3%, 24.6% and 10.1%.
As for `Cc1cccc2c1cc1n2-c2ccccc2NC1c1ccc(O)cc1` (stereo not given), the inhibition at 50 µg/mL stood at 72.9% in the assay with Alternaria alternata; 55.9% in the assay with Alternaria brassicae; 41.2% in assay [1]; 51.3% in the assay with Fusarium graminearum; 50.8% in the assay on Pyricularia oryzae.
The like results for `Cc1cccc2c1cc1n2-c2ccccc2NC1c1ccccc1` (stereo not given) were, in that order, 29.2%, 30.4%, 8.8%, 32% and 22.1%.
Regarding `Cc1cccc2c1cc1n2-c2ccccc2NC1c1ccc(N(C)C)cc1` (stereo not given), the inhibition at 50 µg/mL in the assay with Alternaria alternata was determined as 19.8%; with Alternaria brassicae, 10.4%; in assay [1], 6.9%; in the assay on Fusarium graminearum, 17.6%; in the assay with Pyricularia oryzae, 7.7%.
The like results for `COc1ccc(C2Nc3ccccc3-n3c2cc2c(C)cccc23)cc1` (stereo not given) were, in that order, 14.9%, 7.2%, 9.7%, 12.2% and 15.1%.
The like results for `COc1cc(C2Nc3ccccc3-n3c2cc2c(C)cccc23)ccc1O` (stereo not given) were, in that order, 17.9%, 21%, 20.2%, 12.3% and 16%.
As for `Cc1cccc2c1cc1n2-c2ccccc2NC1c1ccccc1O` (stereo not given), the inhibition at 50 µg/mL stood at 12% in the assay with Alternaria alternata; 55.8% with Alternaria brassicae; 11.7% in assay [1]; 8.8% with Fusarium graminearum; 7.8% in the assay with Pyricularia oryzae.
As to `Cc1ccc2cc3n(c2c1)-c1ccccc1NC3c1ccc([N+](=O)[O-])cc1` (stereo not given), the inhibition at 50 µg/mL in the assay with Alternaria alternata came to 7.8%; with Alternaria brassicae it was 13%; in assay [1], 11.7%; in the assay on Fusarium graminearum, 12.2%; in the assay on Pyricularia oryzae, 1.6%.
For `Cc1ccc2cc3n(c2c1)-c1ccccc1NC3c1ccc(O)cc1` (stereo not given), the inhibition at 50 µg/mL turned out to be 56.3% in the assay with Alternaria alternata; 49% with Alternaria brassicae; 37.3% in assay [1]; 41.2% in the assay on Fusarium graminearum; 43.7% in the assay with Pyricularia oryzae.
Turning to `N#Cc1ccc2c(c1)cc1n2-c2ccccc2NC1c1ccc([N+](=O)[O-])cc1` (stereo not given), the inhibition at 50 µg/mL came to 64.6% in the assay with Alternaria alternata; 52.4% with Alternaria brassicae; 60.8% in assay [1]; 56.3% in the assay on Fusarium graminearum; 62.8% with Pyricularia oryzae.
In the same order, the values of `Cc1cccc2c1cc1n2-c2ccccc2NC1(C)c1ccccc1` (stereo not given) are 32.7%, 29.9%, 23.6%, 43% and 34.6%.
For `Cc1c2n(c3ccccc13)-c1ccccc1NC2c1ccco1` (stereo not given), the inhibition at 50 µg/mL is 37.3% in the assay with Alternaria alternata; 30.1% in the assay with Alternaria brassicae; 17.8% in assay [1]; 31.5% in the assay on Fusarium graminearum; 33.4% with Pyricularia oryzae.
In the same order, the values of `Cc1cc(O)no1` [HYMEXAZOL] are 68.8%, 47.1%, 62.7%, 57% and 53.5%.
